According to patent US10858352B2, “Pharmaceutical compounds” (Heptares Therapeutics Limited, priority 2018, dated 2020):
Where two headings read alike, the source gives them in different places.

What was measured:
Type in all cases: cell-based
[1] = target: T1, human muscarinic M1 receptor (Homo sapiens, UniProt P11229); test: Alphascreen Surefire phospho-ERK1/2 functional assay, M1; settings: for EC50 / pEC50 M1: agonist 5 min, 37° C.; for Emax: CHO
T1 sequence (P11229 1-460): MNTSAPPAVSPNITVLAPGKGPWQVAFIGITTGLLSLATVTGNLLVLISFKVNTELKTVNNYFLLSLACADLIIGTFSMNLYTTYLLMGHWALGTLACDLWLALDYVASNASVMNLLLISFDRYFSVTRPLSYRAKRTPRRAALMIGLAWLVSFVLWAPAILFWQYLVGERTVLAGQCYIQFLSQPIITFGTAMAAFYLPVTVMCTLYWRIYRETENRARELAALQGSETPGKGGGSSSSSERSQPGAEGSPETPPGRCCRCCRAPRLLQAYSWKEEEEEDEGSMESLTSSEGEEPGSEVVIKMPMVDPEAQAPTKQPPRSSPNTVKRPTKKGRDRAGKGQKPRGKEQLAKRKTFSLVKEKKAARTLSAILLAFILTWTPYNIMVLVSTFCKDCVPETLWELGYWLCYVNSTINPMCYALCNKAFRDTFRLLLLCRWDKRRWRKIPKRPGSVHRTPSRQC
Method: (§1) ERK1/2 phosphorylation is a downstream consequence of both Gq/11 and Gi/o protein coupled receptor activation, making it highly suitable for the assessment of M1, M3 (Gq/11 coupled) and M2, M4 receptors (Gi/o coupled), rather than using different assay formats for different receptor subtypes. CHO cells stably expressing the human muscarinic M1, M2, M3 or M4 receptor were plated (25K/well) onto 96-well tissue culture plates in MEM-alpha+10% dialysed FBS. Once adhered, cells were serum-starved overnight. Agonist stimulation was performed by the addition of 5 μL agonist to the cells for 5 min (37° C.). Media was removed and 50 μL of lysis buffer added. After 15 min, a 4 μL sample was transferred to 384-well plate and 7 μL of detection mixture added. […]

[2] = target: T2, human muscarinic M3 receptor (Homo sapiens, UniProt P20309); test: Alphascreen Surefire phospho-ERK1/2 functional assay, M3; settings: for Emax: CHO
T2 construct: expressed in transfected cells
Method: as §1

[3] = target: T3, human muscarinic M4 receptor (Homo sapiens, UniProt P08173); test: Alphascreen Surefire phospho-ERK1/2 functional assay, M4; settings: for EC50 / pEC50 M4: agonist 5 min, 37° C.; for Emax: CHO, read-out: % Emax cf. ACh (M4), CHO cells stably expressing human M4; for Emax / % Emax cf. ACh (M4): Emax relative to ACh
T3 construct: expressed in transfected cells
T3 sequence (P08173 1-479): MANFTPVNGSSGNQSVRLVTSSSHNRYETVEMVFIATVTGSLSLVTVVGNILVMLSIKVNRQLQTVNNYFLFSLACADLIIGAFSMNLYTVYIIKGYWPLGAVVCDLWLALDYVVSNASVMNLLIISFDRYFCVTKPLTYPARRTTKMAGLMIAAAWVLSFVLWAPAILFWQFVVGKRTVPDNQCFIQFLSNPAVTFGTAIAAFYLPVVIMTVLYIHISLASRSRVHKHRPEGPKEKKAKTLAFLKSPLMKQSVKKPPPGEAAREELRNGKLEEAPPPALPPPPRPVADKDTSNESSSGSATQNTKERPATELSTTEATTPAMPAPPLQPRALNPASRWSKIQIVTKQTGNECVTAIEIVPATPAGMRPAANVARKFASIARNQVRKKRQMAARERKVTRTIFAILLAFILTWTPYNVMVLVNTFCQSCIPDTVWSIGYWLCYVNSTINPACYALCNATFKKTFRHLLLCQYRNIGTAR
Method: as §1

[4] = target: T4, human muscarinic M2 receptor (Homo sapiens, UniProt P08172); test: Alphascreen Surefire phospho-ERK1/2 functional assay, M2; settings: for Emax: CHO
T4 sequence (P08172 1-466): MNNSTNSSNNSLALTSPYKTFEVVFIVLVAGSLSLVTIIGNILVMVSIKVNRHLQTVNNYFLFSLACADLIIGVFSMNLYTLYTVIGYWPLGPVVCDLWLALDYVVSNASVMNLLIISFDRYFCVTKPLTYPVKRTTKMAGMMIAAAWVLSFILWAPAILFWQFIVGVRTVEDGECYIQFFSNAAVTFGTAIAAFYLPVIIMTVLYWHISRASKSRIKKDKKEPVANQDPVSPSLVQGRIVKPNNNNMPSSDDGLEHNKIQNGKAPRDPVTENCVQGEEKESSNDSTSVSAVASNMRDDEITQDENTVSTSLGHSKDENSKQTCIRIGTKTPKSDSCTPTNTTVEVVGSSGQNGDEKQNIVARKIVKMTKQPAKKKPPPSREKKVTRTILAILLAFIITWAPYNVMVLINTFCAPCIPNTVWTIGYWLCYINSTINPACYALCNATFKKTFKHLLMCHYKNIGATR
Method: as §1

[5] = CHO cells stably expressing human M1, read-out: pEC50 M1 (converted)
[6] = read-out: % Emax cf. ACh (M1), CHO cells stably expressing human M1, Emax relative to ACh
[7] = CHO cells stably expressing human M3, agonist 5 min, 37° C., read-out: pEC50 M3 (converted)
[8] = read-out: % Emax cf. ACh (M3), CHO cells stably expressing human M3, Emax relative to ACh
[9] = CHO cells stably expressing human M4, read-out: pEC50 M4 (converted)
[10] = CHO cells stably expressing human M2, agonist 5 min, 37° C., read-out: pEC50 M2 (converted)
[11] = read-out: % Emax cf. ACh (M2), CHO cells stably expressing human M2, Emax relative to ACh
[12] = pEC50 M1, CHO cells stably expressing human M1
[13] = CHO cells stably expressing human M1, Emax relative to ACh
[14] = CHO cells stably expressing human M4
[15] = CHO cells stably expressing human M1

T2 sequence (P20309 whole entry): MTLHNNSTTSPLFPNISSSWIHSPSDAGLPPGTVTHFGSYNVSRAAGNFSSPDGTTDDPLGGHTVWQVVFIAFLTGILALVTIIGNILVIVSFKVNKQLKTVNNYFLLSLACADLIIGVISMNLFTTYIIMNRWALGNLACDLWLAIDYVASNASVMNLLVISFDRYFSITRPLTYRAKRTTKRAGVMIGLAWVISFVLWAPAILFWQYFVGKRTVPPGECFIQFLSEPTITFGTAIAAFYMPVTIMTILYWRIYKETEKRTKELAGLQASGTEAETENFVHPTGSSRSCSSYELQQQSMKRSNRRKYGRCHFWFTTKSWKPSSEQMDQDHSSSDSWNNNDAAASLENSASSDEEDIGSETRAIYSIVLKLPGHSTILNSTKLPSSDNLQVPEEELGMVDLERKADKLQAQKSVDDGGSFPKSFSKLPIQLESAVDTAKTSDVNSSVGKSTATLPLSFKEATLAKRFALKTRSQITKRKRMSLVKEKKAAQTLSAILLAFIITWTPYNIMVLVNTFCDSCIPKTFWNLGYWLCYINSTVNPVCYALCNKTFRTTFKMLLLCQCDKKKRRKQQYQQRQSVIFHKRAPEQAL

SMILES	EC50 [1, 5] [nM]	Emax [1, 6] [%]	EC50 [2, 7] [nM]	EC50 [3, 9] [nM]	Emax [3] [%]	EC50 [4, 10] [nM]	Emax ([2]; read-out: % Emax cf. ACh (M3)) [%]	Emax ([4]; read-out: % Emax cf. ACh (M2)) [%]	further results
Cc1noc(N2CCC3(CC(N4CCC(n5cccn5)CC4)C3)C2)n1 (single isomer, unassigned) [2-1 Isomer 2]	> 20000	56	> 20000	302	41	> 20000			Emax [2, 8]: 3%; Emax [4, 11]: 2%
Cc1noc(N2CCC3(CC(N4CCC(C#N)(c5ccccc5)CC4)C3)C2)n1 (single isomer, unassigned) [2-2 Isomer 2]					51		3	2	Emax ([1]; read-out: % Emax cf. ACh (M1)): 40%; EC50 [1, 12]: 741 nM; EC50 [2]: > 20000 nM; EC50 ([3]; pEC50 M4, CHO cells stably expressing human M4): 117 nM; EC50 [4]: > 20000 nM
Cc1noc(N2C3CCC2CC(N2CCC(n4cccn4)CC2)C3)n1 (single isomer, unassigned) [6-1 Isomer 1]	> 20000	23	> 20000	295	51	> 20000	2	2	
CCc1noc(N2C3CCC2CC(N2CCC4(CC2)CNC(=O)C4)C3)n1 (single isomer, unassigned) [6-3 Isomer 2]		33		> 20000	7		1	3	EC50 [1, 12]: 32.4 nM; EC50 [2]: > 20000 nM; EC50 [4]: > 20000 nM
Cc1noc(N2C3CCC2CC(N2CCC4(CC2)CNC(=O)O4)C3)n1 (single isomer, unassigned) [6-4 Isomer 2]	257		> 20000	525		> 20000	32	5	% Emax cf. ACh (M1) [1, 13]: (87) %; % Emax cf. ACh (M4) [3, 14]: (39) %
Cc1noc(N2C3CCC2CC(N2CCC(C(=O)NC4(C)CCC4)CC2)C3)n1 (single isomer, unassigned) [6-5 Isomer 2]	148	100	> 20000	195	79	> 20000	11	31	
Cc1noc(N2CC3CCC2CC3N2CCC(n3cccn3)CC2)n1 (single isomer, unassigned) [7-1 Isomer 1]	> 20000	18	> 20000	151	85	> 20000			Emax [2, 8]: 7%; Emax [4, 11]: 11%
Cc1noc(N2CC3CCC2CC3N2CCC(n3cccn3)CC2)n1 (single isomer, unassigned) [7-1 Isomer 2]	2290			85.1					% Emax cf. ACh (M1) [1, 13]: (33) %; % Emax cf. ACh (M3) ([2]; CHO cells stably expressing human M3, Emax relative to ACh): (6) %; pEC50 M3 ([2]; CHO cells stably expressing human M3, agonist 5 min, 37° C.): <4.70; % Emax cf. ACh (M4) [3, 14]: (99) %; % Emax cf. ACh (M2) ([4]; CHO cells stably expressing human M2, Emax relative to ACh): (15) %; pEC50 M2 ([4]; CHO cells stably expressing human M2, agonist 5 min, 37° C.): <4.70
Cc1noc(N2C3CCCC2CC(N2CCC4(CC2)CNC(=O)O4)C3)n1 (single isomer, unassigned) [8-3 Isomer 1]	295	39	> 20000	> 20000	67	> 20000	1	4	
Cc1noc(N2C3COCC2CC(N2CCC(n4cccn4)CC2)C3)n1 (single isomer, unassigned) [9-1 Isomer 1]	> 20000	15	> 20000	105	77	> 20000	1	21	
CCN(CC)C(=O)[C@H]1[C@@H]2CN(C3CC4COCC(C3)N4c3nc(C)no3)C[C@@H]21 (single isomer, unassigned) [9-2 Isomer 2]	219	109	6310	741	74	> 20000	42	27	
Cc1noc(N2CCCC(N3CCC4(CC3)CNC(=O)C4)CC2)n1 (single isomer, unassigned) [10-2 Isomer 1]	93.3	66	> 20000	> 20000	10	> 20000			Emax [2, 8]: 5%; Emax [4, 11]: 3%
Cc1noc(N2C3CCC2CC(N2CCC(C(=O)NC4(C)CCCC4)CC2)C3)n1 (single isomer, unassigned) [12-11 Isomer 2]	661	103		2690	83				
Cc1noc(N2C3CCC2CC(N2CCC(C(=O)NCC4(C)CCC4)CC2)C3)n1 (single isomer, unassigned) [12-12 Isomer 2]		80		209	107				EC50 [1, 12]: 3.72 nM
CC1(NC(=O)C2CCN(C3CC4CCC(C3)N4c3nc(C(F)(F)F)no3)CC2)CCC1 (single isomer, unassigned) [12-14 Isomer 1]				> 20000					% Emax cf. ACh (M1) [1, 13]: (47) %; EC50 [1, 12]: 912 nM; % Emax cf. ACh (M4) [3, 14]: (6) %
CCN(C)C(=O)[C@H]1[C@@H]2CN(C3CC4CCC(C3)N4c3nc(C)no3)C[C@@H]21 (single isomer, unassigned; isomer 1) [12-24 Isomer 1]									% Emax cf. ACh (M1) [1, 13]: (74) %; pEC50 M1 [1, 15]: 6.08; % Emax cf. ACh (M4) [3, 14]: (16) %; pEC50 M4 [3, 14]: <4.70
Cc1noc(N2C3CCC2CC(N2C[C@@H]4[C@H](C2)[C@H]4C(=O)NC2(C)CCC2)C3)n1 (single isomer, unassigned; isomer 2) [12-13 Isomer 2]									% Emax cf. ACh (M1) [1, 13]: (102) %; pEC50 M1 [1, 15]: 6.48; % Emax cf. ACh (M4) [3, 14]: (69) %; pEC50 M4 [3, 14]: 6.09
Cc1noc(N2CC3(CC(N4CCC(n5cccn5)CC4)C3)C2)n1 [Example 1-1, 2-(3-Methyl-1,2,4-oxadiazol-5-yl)-6-[4-(1H-pyrazol-1-yl)piperidin-1-yl]-2-azaspiro[3.3]heptane]	10200	48		513	77				
Cc1noc(N2CCC(N3CCC(n4cccn4)CC3)CC2)n1 [Example 4-1, 1′-(3-Methyl-1,2,4-oxadiazol-5-yl)-4-(1H-pyrazol-1-yl)-1,4′-bipiperidine]	≥ 20000	50		1000	85				
